In DBAASP:
≈ marks a conversion by molar mass, not a printed value. Where “and” joins values, the source holds several entries; their conditions need not be identical. Equal values may be shown once.

How the values were obtained:
Assay in all cases: ≥ marks a high value that may be exact or a test limit, other limits are often not marked, values filed in µg/mL are converted to µM
Bacillus subtilis = system: Bacillus subtilis
Candida albicans = system: Candida albicans
Escherichia coli = system: Escherichia coli
Staphylococcus aureus = system: Staphylococcus aureus
[1] = system: Enterococcus faecalis ATCC 29212
[2] = system: Escherichia coli DH5alpha
[3] = system: Klebsiella pneumoniae ATCC 13883
[4] = system: Pseudomonas aeruginosa ATCC 27853
[5] = system: Salmonella enterica subsp. enterica serovar Typhimurium ATCC 14028
[6] = system: Staphylococcus aureus ATCC 25923
Bacillus subtilis 168 = system: Bacillus subtilis 168
Escherichia coli B = system: Escherichia coli B
Pseudomonas aeruginosa = system: Pseudomonas aeruginosa
[7] = system: Acinetobacter baumannii ATCC 19606
Acinetobacter baumannii = system: Acinetobacter baumannii
[8] = system: Escherichia coli ATCC 25922
Klebsiella pneumoniae = system: Klebsiella pneumoniae
[9] = system: Salmonella enterica subsp. enterica serovar Typhimurium C77-31
[10] = system: Staphylococcus aureus ATCC 29213
[11] = system: Staphylococcus epidermidis ATCC 12228
Escherichia coli UB1005 = system: Escherichia coli UB1005
[12] = system: Staphylococcus aureus ATCC BAA-1556

An MIC (Bacillus subtilis) of 23.6 µM (≈ 37.5 µg/mL), an MIC (Candida albicans) of 0.693 µM (≈ 1.1 µg/mL) and an MIC (Escherichia coli) of 2.95 µM (≈ 4.67 µg/mL) were found for CC[C@H](C)[C@H](NC(=O)[C@@H]1CCCN1C(=O)[C@H](CCSC)NC(=O)[C@@H](N)Cc1ccccc1)C(=O)N[C@@H](CC(C)C)C(=O)N[C@@H](CO)C(=O)N[C@H]1CSSC[C@@H](C(=O)O)NC(=O)[C@H](CCCN=C(N)N)NC(=O)[C@H](CCCCN)NC(=O)[C@H](Cc2ccccc2)NC(=O)[C@H](CCCN=C(N)N)NC(=O)[C@H](CO)NC1=O [FMPILSCSRFKRC] in this work. For the same compound, the MIC (Staphylococcus aureus) was 5.9 µM (≈ 9.36 µg/mL).

An MIC (Bacillus subtilis) of 4 µM (≈ 9.76 µg/mL), an MIC [1] of 64 µM (≈ 156 µg/mL) and an MIC [2] of 1 µM (≈ 2.44 µg/mL) were found for CC[C@H](C)[C@H](NC(=O)CN)C(=O)NCC(=O)N[C@@H](CCCCN)C(=O)N[C@@H](Cc1ccccc1)C(=O)N[C@@H](CC(C)C)C(=O)N[C@@H](CCCCN)C(=O)N[C@@H](CCCCN)C(=O)N[C@@H](C)C(=O)N[C@@H](CCCCN)C(=O)N[C@@H](CCCCN)C(=O)NCC(=O)N[C@H](C(=O)NCC(=O)N[C@@H](C)C(=O)N[C@H](C(=O)N[C@@H](CC(C)C)C(=O)N[C@@H](CCCCN)C(=O)N[C@H](C(=O)N[C@@H](CC(C)C)C(=O)N[C@H](C(=O)N[C@H](C(=O)NCC(=O)N[C@@H](CC(C)C)C(=O)O)[C@@H](C)O)[C@@H](C)O)C(C)C)C(C)C)[C@@H](C)CC [GIGKFLKKAKKGIGAVLKVLTTGL] in this work. It also gave an MIC [3] of 1 µM (≈ 2.44 µg/mL), an MIC [4] of 2 µM (≈ 4.88 µg/mL) and an MIC [5] of 2 µM (≈ 4.88 µg/mL). The MIC [6] was 2 µM (≈ 4.88 µg/mL).

An MIC (Bacillus subtilis) of 16.6 µM (≈ 35.6 µg/mL), an MIC (Candida albicans) of 4.16 µM (≈ 8.89 µg/mL) and an MIC (Escherichia coli) of 16.6 µM (≈ 35.6 µg/mL) were found for CC[C@H](C)[C@@H]1NC(=O)[C@H](CC(C)C)NC(=O)[C@H](CCC(N)=O)NC(=O)[C@H](Cc2ccc(O)cc2)NC(=O)[C@H](C)NC(=O)[C@@H](NC(=O)[C@H](CCCCN)NC(=O)[C@@H](NC(=O)[C@H](CC(C)C)NC(=O)[C@@H](NC(=O)[C@H](Cc2ccccc2)NC(=O)[C@H](CC(C)C)NC(=O)CN)[C@@H](C)O)[C@@H](C)CC)CSSC[C@@H](C(=O)N[C@@H](CC(N)=O)C(=O)O)NC(=O)[C@H](C)NC(=O)[C@H](C(C)C)NC(=O)[C@H]([C@@H](C)O)NC(=O)[C@@H]2CCCN2C(=O)[C@H](C)NC1=O [GLFTLIKCAYQLIAPTVACN] in this work. It also gave an MIC (Staphylococcus aureus) of 8.32 µM (≈ 17.8 µg/mL).

An MIC (Bacillus subtilis) of 0.394 µM (≈ 0.65 µg/mL), an MIC (Escherichia coli) of 6.9 µM (≈ 11.4 µg/mL) and an MIC (Staphylococcus aureus) of 1.57 µM (≈ 2.6 µg/mL) were found for CC[C@H](C)[C@H](NC(=O)[C@H](CC(C)C)NC(=O)[C@H](C)NC(=O)[C@@H]1CCCN1C(=O)[C@H](CC(C)C)NC(=O)CN)C(=O)N[C@@H](CO)C(=O)N[C@@H](Cc1c[nH]c2ccccc12)C(=O)N[C@H](C(=O)N[C@@H](CCCCN)C(=O)N[C@@H](CCCN=C(N)N)C(=O)N[C@@H](CCCCN)C(=O)N[C@@H](CCCN=C(N)N)C(=O)N[C@@H](CC(C)C)C(N)=O)[C@@H](C)CC [GLPALISWIKRKRL] in this work.

An MIC (Bacillus subtilis 168) of 3.5 µM (≈ 4.39 µg/mL), an MIC (Escherichia coli B) of 7 µM (≈ 8.78 µg/mL) and an MIC (Pseudomonas aeruginosa) of 100 µM (≈ 125 µg/mL) were found for CC[C@H](C)[C@H](NC(=O)[C@H](CC(C)C)NC(=O)[C@H](Cc1cnc[nH]1)NC(=O)CNC(=O)[C@H](CC(C)C)NC(=O)[C@@H](NC(=O)[C@H](CCCCN)NC(=O)[C@H](CO)NC(=O)[C@H](Cc1c[nH]c2ccccc12)NC(=O)[C@H](CCSC)NC(=O)CN)[C@@H](C)CC)C(N)=O [GMWSKILGHLI] in this work. For the same compound, the MIC (Staphylococcus aureus) was 15.5 µM (≈ 19.4 µg/mL).

CC[C@H](C)[C@H](NC(=O)[C@H](CC(C)C)NC(=O)[C@H](C)NC(=O)[C@@H]1CCCN1C(=O)[C@H](CO)NC(=O)CN)C(=O)N[C@@H](CO)C(=O)N[C@@H](Cc1c[nH]c2ccccc12)C(=O)N[C@H](C(=O)N[C@@H](CCCCN)C(=O)N[C@@H](CCCN=C(N)N)C(=O)N[C@@H](CCCCN)C(=O)N[C@@H](CCCN=C(N)N)C(=O)N[C@@H](CCC(N)=O)C(=O)N[C@@H](CCC(N)=O)C(N)=O)[C@@H](C)CC [GSPALISWIKRKRQQ] was tested, and the MIC (Bacillus subtilis) was ≥ 38.2 µM, the MIC (Escherichia coli) was > 153 µM and the MIC (Staphylococcus aureus) was 50.9 µM (≈ 90 µg/mL).

An MIC (Bacillus subtilis) of 5 µM (≈ 8.8 µg/mL) and an MIC (Escherichia coli) of 9 µM (≈ 15.8 µg/mL) were found for CC[C@H](C)[C@H](N)C(=O)N[C@@H](CC(N)=O)C(=O)N[C@@H](Cc1c[nH]c2ccccc12)C(=O)N[C@@H](CCCCN)C(=O)N[C@@H](CCCCN)C(=O)N[C@H](C(=O)N[C@@H](Cc1ccccc1)C(=O)N[C@@H](CCC(=O)O)C(=O)N[C@@H](CCCCN)C(=O)N[C@H](C(=O)N[C@@H](CCCCN)C(=O)N[C@@H](CC(=O)O)C(=O)N[C@@H](CC(C)C)C(=O)N[C@H](C(N)=O)C(C)C)C(C)C)[C@@H](C)CC [INWKKIFEKVKDLV] in this work.

An MIC [7] of 2 µM (≈ 4.12 µg/mL), an MIC (Acinetobacter baumannii) of 22.6 µM (≈ 46.7 µg/mL) and an MIC [8] of 1.41 µM (≈ 2.92 µg/mL) were found for CC[C@H](C)[C@H](NC(=O)[C@@H](N)CCCCN)C(=O)N[C@@H](C)C(=O)N[C@@H](CC(C)C)C(=O)N[C@@H](CCCCN)C(=O)N[C@@H](C)C(=O)N[C@@H](CC(C)C)C(=O)N[C@@H](CCCCN)C(=O)N[C@@H](C)C(=O)N[C@@H](CC(C)C)C(=O)N[C@@H](CCCCN)C(=O)N[C@@H](C)C(=O)N[C@@H](CC(C)C)C(=O)NCC(=O)N[C@@H](CCCCN)C(=O)N[C@@H](C)C(=O)N[C@@H](CC(C)C)C(=O)N[C@@H](CCCCN)C(=O)N[C@@H](C)C(=O)N[C@@H](CC(C)C)C(N)=O [KIALKALKALKALGKALKAL] in this work. The MIC (Escherichia coli) was 32 µM (≈ 66 µg/mL), the MIC [3] was 2.83 µM (≈ 5.83 µg/mL) and the MIC (Klebsiella pneumoniae) was 22.6 µM (≈ 46.7 µg/mL). The MIC [4] was 11.3 µM (≈ 23.3 µg/mL), the MIC (Pseudomonas aeruginosa) was 32 µM (≈ 66 µg/mL) and the MIC [6] was 4 µM (≈ 8.25 µg/mL). For the same compound, the MIC (Staphylococcus aureus) was 2.83 µM (≈ 5.83 µg/mL).

An MIC (Bacillus subtilis 168) of 2.1 µM (≈ 3.11 µg/mL), an MIC (Escherichia coli B) of 6.3 µM (≈ 9.33 µg/mL) and an MIC (Pseudomonas aeruginosa) of 73.3 µM (≈ 109 µg/mL) were found for CC[C@H](C)[C@H](NC(=O)[C@H](CC(C)C)NC(=O)[C@H](Cc1cnc[nH]1)NC(=O)CNC(=O)[C@H](CC(C)C)NC(=O)[C@@H](NC(=O)[C@H](CCCCN)NC(=O)[C@H](CO)NC(=O)[C@H](Cc1c[nH]c2ccccc12)NC(=O)[C@H](CCSC)NC(=O)[C@@H](N)CCCCN)[C@@H](C)CC)C(=O)N[C@@H](CCCN=C(N)N)C(N)=O [KMWSKILGHLIR] in this work. For the same compound, the MIC (Staphylococcus aureus) was 41.7 µM (≈ 61.8 µg/mL).

For CC(C)C[C@H](NC(=O)[C@H](CCCN=C(N)N)NC(=O)[C@H](CC(N)=O)NC(=O)[C@H](C)NC(=O)[C@H](CCCN=C(N)N)NC(=O)[C@H](CC(C)C)NC(=O)[C@H](Cc1c[nH]c2ccccc12)NC(=O)[C@H](CC(C)C)NC(=O)[C@H](CCCN=C(N)N)NC(=O)[C@H](CCCN=C(N)N)NC(=O)[C@H](CC(C)C)NC(=O)[C@H](CC(C)C)NC(=O)[C@H](CCCN=C(N)N)NC(=O)[C@H](CC(N)=O)NC(=O)[C@H](C)NC(=O)[C@H](CCCN=C(N)N)NC(=O)[C@H](CC(C)C)NC(=O)[C@H](Cc1c[nH]c2ccccc12)NC(=O)[C@H](CC(C)C)NC(=O)[C@H](CCCN=C(N)N)NC(=O)[C@H](CCCN=C(N)N)NC(=O)[C@@H](N)CC(C)C)C(N)=O [LRRLWLRANRLLRRLWLRANRL], the MIC [1] was 2 µM and 4 µM, the MIC [8] was 4 µM (≈ 11.7 µg/mL) and the MIC [4] was 4 µM (≈ 11.7 µg/mL). The MIC [9] was 2 µM and 4 µM, the MIC [10] was 2 µM and 4 µM and the MIC [11] was 2 µM and 4 µM.

An MIC [8] of 2 µM (≈ 3.57 µg/mL), an MIC (Escherichia coli UB1005) of 4 µM (≈ 7.14 µg/mL) and an MIC [9] of 8 µM (≈ 14.3 µg/mL) were found for CC(C)C[C@H](NC(=O)[C@H](CCCN=C(N)N)NC(=O)[C@H](Cc1c[nH]c2ccccc12)NC(=O)[C@H](CCCN=C(N)N)NC(=O)[C@@H](NC(=O)[C@H](CCCCN)NC(=O)[C@H](Cc1c[nH]c2ccccc12)NC(=O)[C@H](CCCN=C(N)N)NC(=O)[C@H](CC(C)C)NC(=O)[C@H](Cc1c[nH]c2ccccc12)NC(=O)[C@@H](N)CCCN=C(N)N)[C@@H](C)O)C(=O)N[C@@H](CCCCN)C(N)=O [RWLRWKTRWRLK] in this work. It also gave an MIC [6] of 16 µM (≈ 28.5 µg/mL), an MIC [10] of 4 µM (≈ 7.14 µg/mL) and an MIC [11] of 16 µM (≈ 28.5 µg/mL).

For CC(C)[C@H](N)C(=O)N[C@H](C(=O)N[C@@H](CCCCN)C(=O)N[C@H](C(=O)N[C@H](C(=O)N[C@H](C(=O)N[C@@H](CCCCN)C(=O)N[C@H](C(=O)N[C@H](C(N)=O)C(C)C)C(C)C)C(C)C)C(C)C)C(C)C)C(C)C [VVKVVVKVV], the MIC [12] was ≥ 100 µM.

An MIC [12] of 6.25 µM (≈ 9.48 µg/mL) was found for CC(C)C[C@H](NC(=O)[C@H](Cc1c[nH]c2ccccc12)NC(=O)[C@H](Cc1c[nH]c2ccccc12)NC(=O)[C@H](CCCN=C(N)N)NC(=O)[C@H](Cc1c[nH]c2ccccc12)NC(=O)[C@H](Cc1c[nH]c2ccccc12)NC(=O)[C@H](CC(C)C)NC(=O)[C@H](Cc1c[nH]c2ccccc12)NC(=O)[C@@H](N)Cc1c[nH]c2ccccc12)C(N)=O [WWLWWRWWL] in this work.
